Experiments:
osteoclasts [1] = assay: Dentin disc actin ring assay through immunofluorescence staining; assay type: cell-based, mice; conditions: 10, 20, or 40 μM for 3 days, pre-osteoclasts from BMMs, compared to non-treatment; FIG. 5B
Procedure: (§1) Specifically, bone marrow-derived macrophages (BMMs) were isolated from 3- to 4-week-old mice and cultured. On day 5, the BMMs were treated with receptor activator of nuclear factors KB ligand (RANKL) and macrophage-colony stimulating factor (M-CSF) for 3 days to be differentiated into pre-osteoclasts. Thereafter, to confirm the degree of osteoclast activation, the pre-osteoclasts were treated with 10, 20, or 40 μM of hordenine for 3 days, and a bone resorption assay through hematoxylin staining and a dentin disc actin ring assay through immunofluorescence staining were performed to confirm the degree of osteoclast activation. Bone resorption assay is a method of seeding osteoclasts on a dentin disc, which is an experimental bone tissue simulating the dentin component of bone, and quantifying the extent to which osteoclasts eat away at the bone. When holes formed by bone erosion are quantified, the pit area is measured, and a lower measurement indicates a lower degree of bone erosion. The more extensively the disc is eroded, the more intensely the disc stains with hematoxylin, while less eroded areas stain more lightly. […]

osteoclasts [2] = assay: Bone resorption assay on dentin disc through hematoxylin staining; assay type: cell-based, mice; conditions: 10, 20, or 40 μM for 3 days, pre-osteoclasts from BMMs, compared to non-treatment; FIG. 5A
Procedure: as §1

mesenchymal stem cells = assay: Differentiation of mesenchymal stem cells into chondrocytes, Alcian blue staining; assay type: cell-based; conditions: 5 or 10 µM hordenine, compared to the group treated only with a differentiation medium, FIG. 1
Procedure: Specifically, mesenchymal stem cells were seeded at 2.5×10^4 cells/48 well and divided into a group treated only with the basic medium α-MEM, a group treated only with a differentiation medium (Chondrogenic media (CM)), and groups treated with 5 or 10 µM hordenine. After a few days, the degree of chondrocyte differentiation was evaluated by Alcian blue staining.

[3] = system: osteoarthritis induced by DMM; assay: Cartilage regeneration in DMM-induced osteoarthritis, Safranin O and fast green staining; assay type: in vivo, mice; conditions: 2 mg/kg intra-articularly for 4 weeks from week 5 after DMM, examined at week 9
Procedure: Specifically, osteoarthritis was induced by incising the ligament that stabilizes the medial meniscus in the joint tissue of 9-week-old mice. Starting from week 5 after destabilization of the medial meniscus (DMM), 2 mg/kg of hordenine was injected intra-articularly for 4 weeks, and at week 9, the mice were sacrificed and the joint tissues were examined by staining with Safranin O and fast green. The experimental process is illustrated in FIG. 2, and the experimental results are illustrated in FIGS. 3A and 3B.

osteoclasts [4] = assay: LPS-induced bone destruction in mouse skull, TRAP staining; assay type: in vivo, mice; conditions: 1 mg/kg intra-calvarially for 5 days after LPS 12.5 mg/kg; skulls harvested 6 days after the first LPS injection day; compared to LPS only; FIG. 6
Procedure: Specifically, 12.5 mg/kg of lipopolysaccharide (LPS) was injected intra-calvarially into the skull of 5-week-old male mice twice in total: once on the first injection day and once 2 days after the first injection day, thereby inducing bone destruction. Thereafter, 1 mg/kg of hordenine was injected intra-calvarially for 5 days, starting 1 day after the first LPS injection day. 6 days after the first LPS injection day, the mice were sacrificed and the skulls were harvested from the mice. Then, the degree of osteoclast differentiation was evaluated by tartrate-resistant acid phosphatase (TRAP) staining. The results thereof are illustrated in FIG. 6.

CN(C)CCc1ccc(O)cc1 [hordenine, 4-(2-dimethylaminoethyl) phenol]
number of osteoclasts forming actin rings (osteoclasts [1]): decreased in a concentration-dependent manner | hematoxylin staining (bone erosion of dentin disc) (osteoclasts [2]): became lighter in a concentration-dependent manner | pit area (osteoclasts [2]): reduced | degree of differentiation from mesenchymal stem cells into chondrocytes (mesenchymal stem cells): much higher | cartilage degradation (OARSI grade) [3]: decrease | osteophytes caused by osteoarthritis induction [3]: reduced | synovitis [3]: reduced | thickness of subchondral bone plate (SBP) [3]: reduced | cartilage (red portion) that had collapsed due to DMM ([3]; FIGS. 3A and 3B): restored | TRAP staining of skulls (degree of osteoclast differentiation) (osteoclasts [4]): lightly stained with TRAP

— patent US20250268845A1, “BONE REGENERATION COMPOSITION INCLUDING HORDENINE AND USE THEREOF” ([…]., priority 2023, published 2025)
